Measurements taken from patent US9499519B2, “Fused pyrimidine compounds and use thereof” (Medivation Technologies, Inc., priority 2012, dated 2016).
Where two headings read alike, the source gives them in different places.

Columns and labels:
[1] = molecular target: T1, IGF-1R (Homo sapiens, UniProt P08069); experiment: In vitro IGF-1R enzymatic assay (ADP-Glo kinase assay); type: biochemical; conditions: activated IGF-1R; for inhibition at 0.03 µM / % Inh @ 30 nM Avg: 30 nM
T1 construct: purchased Millipore 14-802
T1 sequence (P08069 31-1367): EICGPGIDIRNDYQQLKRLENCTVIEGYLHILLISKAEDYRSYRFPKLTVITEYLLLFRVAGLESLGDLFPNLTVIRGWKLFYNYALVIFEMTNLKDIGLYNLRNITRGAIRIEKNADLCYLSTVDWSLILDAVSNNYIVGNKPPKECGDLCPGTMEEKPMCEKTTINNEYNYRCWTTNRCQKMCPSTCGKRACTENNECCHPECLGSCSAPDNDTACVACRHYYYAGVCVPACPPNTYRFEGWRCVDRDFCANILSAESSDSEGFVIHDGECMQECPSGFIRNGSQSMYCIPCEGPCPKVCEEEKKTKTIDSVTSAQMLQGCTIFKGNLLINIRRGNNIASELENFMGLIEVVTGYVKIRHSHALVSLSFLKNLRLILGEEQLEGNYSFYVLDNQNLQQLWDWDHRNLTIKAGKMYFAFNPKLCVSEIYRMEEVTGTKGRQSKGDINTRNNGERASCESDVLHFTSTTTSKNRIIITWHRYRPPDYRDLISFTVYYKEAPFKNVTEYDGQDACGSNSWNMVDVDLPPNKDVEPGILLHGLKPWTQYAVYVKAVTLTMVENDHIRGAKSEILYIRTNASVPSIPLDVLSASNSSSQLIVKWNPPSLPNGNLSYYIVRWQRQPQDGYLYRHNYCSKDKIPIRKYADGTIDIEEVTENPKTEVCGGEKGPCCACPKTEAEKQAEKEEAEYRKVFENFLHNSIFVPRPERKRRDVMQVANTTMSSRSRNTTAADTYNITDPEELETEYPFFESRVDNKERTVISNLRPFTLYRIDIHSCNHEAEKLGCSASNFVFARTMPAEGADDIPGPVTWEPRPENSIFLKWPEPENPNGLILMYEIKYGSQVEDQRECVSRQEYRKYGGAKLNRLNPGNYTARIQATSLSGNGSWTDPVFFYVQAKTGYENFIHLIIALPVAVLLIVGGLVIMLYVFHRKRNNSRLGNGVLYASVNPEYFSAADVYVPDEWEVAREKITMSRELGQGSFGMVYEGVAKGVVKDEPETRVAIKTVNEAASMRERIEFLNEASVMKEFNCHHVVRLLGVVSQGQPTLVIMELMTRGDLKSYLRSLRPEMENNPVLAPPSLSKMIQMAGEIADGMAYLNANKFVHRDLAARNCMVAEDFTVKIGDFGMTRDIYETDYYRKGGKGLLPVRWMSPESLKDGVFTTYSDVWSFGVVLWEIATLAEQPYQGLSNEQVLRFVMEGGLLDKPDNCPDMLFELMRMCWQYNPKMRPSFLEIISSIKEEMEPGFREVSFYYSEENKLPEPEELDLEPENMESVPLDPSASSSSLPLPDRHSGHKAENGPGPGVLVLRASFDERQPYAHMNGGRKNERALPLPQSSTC
Method: (§1) IC50 values of the compounds of the invention against IGF-1R and IR were measured in vitro using an ADP-Glo kinase assay Kit (Promega). […] Kinase reactions in both assays were conducted at 30° C. for 20 min with increasing concentrations of compounds of the invention.
Additional compounds of the invention were screened against activated IGF-1R.

[2] = system: Akt phosphorylation induced by IGF-1R; experiment: Western blot analysis of Akt phosphorylation induced by IGF-1 in HT-29 cells; type: cell-based, Human; conditions: for Levels of phosphorylated AKT in treated cells (pAKT/actin): HT-29 cells, IGF-1; for p-AKT relative to levels with 0.1 nM compound: Table B2 lower part; for Normalized phosphorylated AKT (relative to actin) levels relative to 0.1 nM compound treatment: Table B2 upper part
Method: Inhibition of Akt phosphorylation induced by IGF-1R was studied by western blot analysis. Human colon carcinoma HT-29 cells were seeded at a density of 8×10^4 cells/well in a 24-well plate and grown in DME/F12 media containing 10% FBS for 24 h. The cells were then depleted of serum by incubation in DME/F12 media lacking FBS for 24 h. […] […] Lysed cells were centrifuged at 13,000 rpm for 15 min and the protein concentration soluble fraction (supernatant) of each sample was determined using a BCA protein assay (Pierce).

[3] = molecular target: T2, IR (Homo sapiens, UniProt P06213); experiment: In vitro IR enzymatic assay (ADP-Glo kinase assay); type: biochemical; conditions: activated IR, 30 nM
T2 construct: purchased Millipore 14-803
T2 sequence (P06213 28-1382): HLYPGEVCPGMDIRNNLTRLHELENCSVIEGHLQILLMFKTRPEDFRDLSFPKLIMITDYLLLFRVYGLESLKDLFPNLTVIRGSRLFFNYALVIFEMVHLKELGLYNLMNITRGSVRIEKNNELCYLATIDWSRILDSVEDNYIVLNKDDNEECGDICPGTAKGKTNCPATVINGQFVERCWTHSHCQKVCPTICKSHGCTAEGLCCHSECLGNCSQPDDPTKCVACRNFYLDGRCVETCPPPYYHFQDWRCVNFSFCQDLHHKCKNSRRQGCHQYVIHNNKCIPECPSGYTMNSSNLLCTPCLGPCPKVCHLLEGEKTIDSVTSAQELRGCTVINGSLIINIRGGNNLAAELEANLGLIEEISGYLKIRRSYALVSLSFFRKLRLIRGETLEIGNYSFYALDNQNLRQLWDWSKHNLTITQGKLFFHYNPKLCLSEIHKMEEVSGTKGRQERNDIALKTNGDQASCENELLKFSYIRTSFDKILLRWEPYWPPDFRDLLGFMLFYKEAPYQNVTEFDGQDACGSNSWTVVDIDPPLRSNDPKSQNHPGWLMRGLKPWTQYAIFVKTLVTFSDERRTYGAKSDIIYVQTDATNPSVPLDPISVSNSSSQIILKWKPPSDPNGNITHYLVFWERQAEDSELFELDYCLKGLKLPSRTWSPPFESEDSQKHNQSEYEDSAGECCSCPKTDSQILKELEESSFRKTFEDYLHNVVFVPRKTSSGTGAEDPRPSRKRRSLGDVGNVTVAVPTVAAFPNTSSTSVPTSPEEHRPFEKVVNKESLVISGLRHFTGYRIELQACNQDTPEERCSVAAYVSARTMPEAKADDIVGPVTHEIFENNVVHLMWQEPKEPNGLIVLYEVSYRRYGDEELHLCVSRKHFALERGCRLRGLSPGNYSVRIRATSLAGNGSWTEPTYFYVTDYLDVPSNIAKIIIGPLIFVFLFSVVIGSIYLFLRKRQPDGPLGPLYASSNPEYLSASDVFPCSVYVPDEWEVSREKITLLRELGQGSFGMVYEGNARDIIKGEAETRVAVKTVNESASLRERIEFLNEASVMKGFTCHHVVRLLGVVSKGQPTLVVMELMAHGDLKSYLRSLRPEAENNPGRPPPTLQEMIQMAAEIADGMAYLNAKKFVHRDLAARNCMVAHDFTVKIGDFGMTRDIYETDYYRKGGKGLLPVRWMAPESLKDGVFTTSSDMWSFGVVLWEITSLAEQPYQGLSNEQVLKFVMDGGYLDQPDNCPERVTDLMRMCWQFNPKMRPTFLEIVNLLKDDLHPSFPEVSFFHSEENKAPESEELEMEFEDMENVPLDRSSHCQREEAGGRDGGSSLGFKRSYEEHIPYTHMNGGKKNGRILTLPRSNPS
Method: as §1
Additional compounds of the invention were screened against activated IR.

[4] = N1, read-out: % Inh @ 30 nM (N1)
[5] = N2, read-out: % Inh @ 30 nM (N2)
[6] = average, read-out: % Inh @ 30 nM Avg

| Compound | inhibition at 0.03 µM [1, 6] | Levels of phosphorylated AKT in treated cells (pAKT/actin) ([2]; 0.1 nM compound) | p-AKT relative to levels with 0.1 nM compound ([2]; 0.1 nM) | Normalized phosphorylated AKT (relative to actin) levels relative to 0.1 nM compound treatment ([2]; 0.1 nM) | Levels of phosphorylated AKT in treated cells (pAKT/actin) ([2]; 1 nM compound) | p-AKT relative to levels with 0.1 nM compound ([2]; 1 nM) | Normalized phosphorylated AKT (relative to actin) levels relative to 0.1 nM compound treatment ([2]; 1 nM) | Levels of phosphorylated AKT in treated cells (pAKT/actin) ([2]; 10 nM compound) | p-AKT relative to levels with 0.1 nM compound ([2]; 10 nM) | Normalized phosphorylated AKT (relative to actin) levels relative to 0.1 nM compound treatment ([2]; 10 nM) | Levels of phosphorylated AKT in treated cells (pAKT/actin) ([2]; 100 nM compound) | p-AKT relative to levels with 0.1 nM compound ([2]; 100 nM) | Normalized phosphorylated AKT (relative to actin) levels relative to 0.1 nM compound treatment ([2]; 100 nM) | inhibition at 0.03 µM [3, 6] | % Inh @ 30 nM Avg ([3]; average) | % Inh @ 30 nM Avg ([1]; average) | also measured |
| --- | --- | --- | --- | --- | --- | --- | --- | --- | --- | --- | --- | --- | --- | --- | --- | --- | --- |
| CC(C)c1cc(Nc2nc(N3CCCC3C(=O)Nc3ccc(F)nc3)nc3c2CCC3)on1 (racemic) [Compound 12b, N-(6-fluoropyridin-3-yl)-1-(4-(3-isopropylisoxazol-5-ylamino)-6,7-dihydro-5H-cyclopenta[d]pyrimidin-2-yl)pyrrolidine-2-carboxamide] | 24% | 3.66 | 1.0 | 1.0 | 3.56 | 1.0 | 1.0 | 4.32 | 1.2 | 1.2 | 2.29 | 0.6 | 0.6 | -12% |  |  | inhibition at 0.03 µM [1, 4]: 13%; inhibition at 0.03 µM [1, 5]: 34%; inhibition at 0.03 µM [3, 4]: -14%; inhibition at 0.03 µM [3, 5]: -10% |
| CC(C)c1cc(Nc2nc(N3CC(O)CC3C(=O)Nc3ccc(F)nc3)nc3c2CCC3)n[nH]1 (racemic) [Compound 70, N-(6-fluoropyridin-3-yl)-4-hydroxy-1-(4-(5-isopropyl-1H-pyrazol-3-ylamino)-6,7-dihydro-5H-cyclopenta[d]pyrimidin-2-yl)pyrrolidine-2-carboxamide] | 66% |  |  |  |  |  |  |  |  |  |  |  |  | 60% |  |  | IC50 [1]: 22 nM |
| O=C(Nc1ccc(F)nc1)C1CC(O)CN1c1nc2c(c(Nc3cc(C4CC4)[nH]n3)n1)CCC2 (single isomer, unassigned) [Compound 10d, 1-(4-(5-cyclopropyl-1H-pyrazol-3-ylamino)-6,7-dihydro-5H-cyclopenta[d]pyrimidin-2-yl)-N-(6-fluoropyridin-3-yl)-4-hydroxypyrrolidine-2-carboxamide] | 84% |  |  |  |  |  |  |  |  |  |  |  |  | 85% |  |  |  |
| CC(C)c1cc(Nc2nc(N3CCC[C@@H]3C(=O)Nc3ccc(F)nc3)nc3c2CCC3)on1 (single isomer, unassigned) [Compound 12a] |  | 4.17 | 1.0 | 1.0 | 3.33 | 0.8 | 0.8 | 2.91 | 0.7 | 0.7 | 4.16 | 1.0 | 1.0 | 9% |  |  | inhibition at 0.03 µM [3, 4]: 10%; inhibition at 0.03 µM [3, 5]: 8% |
| O=C(Nc1ccc(F)nc1)C1CCCN1c1nc2c(c(Nc3cc(C4CCCC4)[nH]n3)n1)CCCC2 (single isomer, unassigned) [Compound 15a, 1-(4-(5-cyclopentyl-1H-pyrazol-3-ylamino)-5,6,7,8-tetrahydroquinazolin-2-yl)-N-(6-fluoropyridin-3-yl)pyrrolidine-2-carboxamide] |  | 0.70 | 1.0 | 1.0 | 0.89 | 1.3 | 1.3 | 0.92 | 1.3 | 1.3 | 0.59 | 0.8 | 0.8 |  | 1% |  | % Inh @ 30 nM (N1) ([3]; N1, 0.03 µM): −2%; % Inh @ 30 nM (N2) ([3]; N2, 0.03 µM): 4% |
| CC(C)c1cc(Nc2nc(N3CCCC3C(N)=O)nc3c2CCC3)n[nH]1 (single isomer, unassigned) [Compound 18a, 1-(4-(5-isopropyl-1H-pyrazol-3-ylamino)-6,7-dihydro-5H-cyclopenta[d]pyrimidin-2-yl)pyrrolidine-2-carboxamide] |  |  |  |  |  |  |  |  |  |  |  |  |  |  | 3% | 14% |  |
| CC(C)c1cc(Nc2nc(N3CCCC3C(N)=O)nc3c2CCC3)n[nH]1 (single isomer, unassigned) [Compound 18b, 1-(4-(5-isopropyl-1H-pyrazol-3-ylamino)-6,7-dihydro-5H-cyclopenta[d]pyrimidin-2-yl)pyrrolidine-2-carboxamide] |  |  |  |  |  |  |  |  |  |  |  |  |  |  | 32% | 39% |  |
| CNC(=O)C1CCCN1c1nc2c(c(Nc3cc(C(C)C)[nH]n3)n1)CCC2 (single isomer, unassigned) [Compound 19a, 1-(4-(5-isopropyl-1H-pyrazol-3-ylamino)-6,7-dihydro-5H-cyclopenta[d]pyrimidin-2-yl)-N-methylpyrrolidine-2-carboxamide] |  |  |  |  |  |  |  |  |  |  |  |  |  |  | −9% | −3% |  |
| CNC(=O)C1CCCN1c1nc2c(c(Nc3cc(C(C)C)[nH]n3)n1)CCC2 (single isomer, unassigned) [Compound 19b, 1-(4-(5-isopropyl-1H-pyrazol-3-ylamino)-6,7-dihydro-5H-cyclopenta[d]pyrimidin-2-yl)-N-methylpyrrolidine-2-carboxamide] |  |  |  |  |  |  |  |  |  |  |  |  |  |  | 9% | 21% |  |
| CC(C)c1cc(Nc2nc(N3CCCC3C(=O)N(C)c3ccc(F)nc3)nc3c2CCC3)n[nH]1 (stereo not drawn) [Compound 55a, N-(6-fluoropyridin-3-yl)-1-(4-((5-isopropyl-1H-pyrazol-3-yl)amino)-6,7-dihydro-5H-cyclopenta[d]pyrimidin-2-yl)-N-methylpyrrolidine-2-carboxamide] | 13% |  |  |  |  |  |  |  |  |  |  |  |  | 8% |  |  |  |
